Laboratory results reported in patent US11266649B2, “Pharmaceutical formulations” (Corvus Pharmaceuticals, Inc., priority 2018, dated 2022).

Assays:
[1] = Particle size distribution by laser diffraction, before and after jet-mill micronization; format: physicochemical
Experimental: “Particle size distribution” or “PSD” or “size distribution” refers to the size of particles present in their relative proportions in a sample, as measured by laser diffraction spectroscopy. In aspects, the particle size distribution refers to the particle size distribution of all the drug particles in the composition. The particle size distribution of a sample is measured by laser diffraction spectroscopy. Laser diffraction spectrometers are commercially available as, e.g., MASTERSIZER® 3000 from Malvern Instruments Ltd, and HORIBA® LA-950 by Horiba Instruments, Inc., Irvine Calif. For laser diffraction spectroscopy, particle size distribution is generally described by D values, such as D90. In aspects, the laser diffraction spectroscopy can be analyzed by the Fraunhofer theory. In aspects, the laser diffraction spectroscopy can be analyzed by the Mie scattering theory. In aspects, the laser diffraction spectroscopy can be analyzed by a combination of the Fraunhofer theory and the Mie scattering theory.
Formulation (III) was micronized using a Sturtevant SDM jet mill with a 2 inch diameter loop. The process parameters were: inlet air pressure 120 psi; grind chamber 100 psi; nozzle air pressure 80 psi; manual fee rate.
Formulation (III) was micronized using a Sturtevant SDM jet mill with a 4 inch diameter loop. The process parameters were: inlet air pressure 120 psi; grind chamber 100 psi; nozzle air pressure 80 psi; manual fee rate.

[2] = Storage stability: Total Impurities by stability-indicating HPLC; format: physicochemical; conditions: API (Formula (III)) itself, reference
[3] = 1 pass micronization, jet mill 2 inch diameter loop
[4] = 1 pass micronization, jet mill 4 inch diameter loop
[5] = 2 pass micronization, jet mill 4 inch diameter loop
[6] = Before micronization, Table 1A, jet mill 2 inch diameter loop
[7] = Before micronization, Table 1B, jet mill 4 inch diameter loop

D10 [1, 3]: 0.9 microns
D50 [1, 3]: 3.3 microns
D90 [1, 3]: 8.2 microns
D10 [1, 4]: 1.1 microns
D50 [1, 4]: 4.3 microns
D90 [1, 4]: 20.2 microns
D10 [1, 5]: 0.9 microns
D50 [1, 5]: 3.1 microns
D90 [1, 5]: 8.3 microns
D10 [1, 6]: 2.3 microns
D50 [1, 6]: 8.6 microns
D90 [1, 6]: 31.1 microns
D10 [1, 7]: 2.3 microns
D50 [1, 7]: 8.6 microns
D90 [1, 7]: 31.1 microns
Total Impurities [2]: 0.80%
Total Impurities ([2]; listed as API): 0.80%
SMILES: Cc1ccc(-c2nc(N)nc3c2nnn3Cc2cccc(COC3CCOC3)n2)o1 (centres unmarked) [Formula (III)]
